Holding throughout (type): functional
Assay [1] deals with Mycobacterium tuberculosis. Briefly: Antimycobacterial activity against RFP-resistant Mycobacterium tuberculosis isolate 8.
Assay [2] concerns Mycobacterium tuberculosis. Description: Antimycobacterial activity against INH, RFP, SM, EB, KM, PAS, EVM, LVFX-resistant Mycobacterium tuberculosis isolate 16.
The test system of assay [3] is Mycobacterium tuberculosis. Briefly: Antimycobacterial activity against INH, RFP, SM, EB, KM, LVFX, SPFX, CPFX-resistant Mycobacterium tuberculosis isolate 6.
Assay [4] relates to Mycobacterium tuberculosis. Description: Antimycobacterial activity against INH, RFP, EB, LVFX, SPFX, CPFX-resistant Mycobacterium tuberculosis isolate 2.
Assay [5] deals with Mycobacterium tuberculosis. Description: Antimycobacterial activity against INH, RFP-resistant Mycobacterium tuberculosis isolate 17.
The test system of assay [6] is Mycobacterium tuberculosis. Description: Antimycobacterial activity against INH, RFP, EB-resistant Mycobacterium tuberculosis isolate 12.
The subject of assay [7] is Mycobacterium tuberculosis. Description: Antimycobacterial activity against INH, RFP, SM, EB-resistant Mycobacterium tuberculosis isolate 13.
Assay [8] concerns Mycobacterium tuberculosis. Briefly: Antimycobacterial activity against INH, RFP, KM, LVFX, SPFX, CPFX-resistant Mycobacterium tuberculosis isolate 9.
Assay [9] relates to Mycobacterium tuberculosis. Description: Antimycobacterial activity against INH, RFP, EB, KM, LVFX, SPFX, CPFX-resistant Mycobacterium tuberculosis isolate 5.
Assay [10] relates to Mycobacterium tuberculosis. Briefly: Antimycobacterial activity against INH, RFP, EB, KM, LVFX, SPFX, CPFX-resistant Mycobacterium tuberculosis isolate 11.
Assay [11] relates to Mycobacterium tuberculosis. Description: Antimycobacterial activity against INH, RFP, EB-resistant Mycobacterium tuberculosis isolate 14.
The test system of assay [12] is Mycobacterium tuberculosis. Briefly: Antimycobacterial activity against INH, RFP, EB, LVFX, CPFX-resistant Mycobacterium tuberculosis isolate 4.
For assay [13], the system named is Mycobacterium tuberculosis. Description: Antimycobacterial activity against INH, RFP, ETH-resistant Mycobacterium tuberculosis isolate 20.
The subject of assay [14] is Mycobacterium tuberculosis. Description: Antimycobacterial activity against RFP-resistant Mycobacterium tuberculosis isolate 7.
The test system of assay [15] is Mycobacterium tuberculosis. Briefly: Antimycobacterial activity against RFP, EB-resistant Mycobacterium tuberculosis isolate 3.
The test system of assay [16] is Mycobacterium tuberculosis. Description: Antimycobacterial activity against INH, RFP, EB, LVFX, SPFX, CPFX-resistant Mycobacterium tuberculosis isolate 1.
Assay [17] has as its system Mycobacterium tuberculosis. Description: Antimycobacterial activity against INH, RFP, SM, EB, PAS, LVFX-resistant Mycobacterium tuberculosis isolate 19.
The subject of assay [18] is Mycobacterium tuberculosis. Briefly: Antimycobacterial activity against INH, RFP, EB, LVFX, SPFX, CPFX-resistant Mycobacterium tuberculosis isolate 15.
The subject of assay [19] is Mycobacterium tuberculosis. Briefly: Antimycobacterial activity against RFP-resistant Mycobacterium tuberculosis isolate 10.
For assay [20], the system named is Mycobacterium tuberculosis. Description: Antimycobacterial activity against INH, RFP, SM, EB, PAS-resistant Mycobacterium tuberculosis isolate 18.

The MIC is the lowest concentration that inhibits growth of the organism. High values mean a less susceptible organism, low ones a more susceptible organism.

Each structure is given as a SMILES string. ≈ marks a conversion by molar mass, not a printed value.

Take `N.S=C(S)N1CCCC1` [PYRROLIDINE DITHIOCARBAMIC ACID, AMMONIUM SALT]: the minimal inhibitory concentration (MIC) in assay [1], in [2], in assay [3], in assay [4], in assay [5] and in [6] was 0.2 µg/mL in each case. Besides, the MIC in assay [7] was 0.2 µg/mL; in assay [8] it was 0.2 µg/mL; in assay [9], 0.2 µg/mL; in assay [10] it was 0.2 µg/mL; in [11], 0.2 µg/mL; in [12] it was 0.4 µg/mL. Further, the MIC in assay [13] is 0.2 µg/mL; in assay [14], 0.2 µg/mL; in [15] it was 0.2 µg/mL; in assay [16] it was 0.2 µg/mL; in assay [17] it was 0.4 µg/mL; in assay [18] it was 0.2 µg/mL. In addition, the MIC in assay [19] stood at 0.4 µg/mL; in assay [20], 0.2 µg/mL.
As to `CC(=O)N[C@@H]1[C@@H](O)[C@H](O)[C@@H](CO)O[C@H]1SC(=S)N1CCCC1`, the MIC in assay [1], in assay [2], in [3], in assay [4], in [5] and in [6] was 6.25 µg/mL (≈ 17.8 µM) throughout. The MIC in assay [7] was 6.25 µg/mL (≈ 17.8 µM); in [8], 6.25 µg/mL (≈ 17.8 µM); in assay [9], 6.25 µg/mL (≈ 17.8 µM); in [10], 12.5 µg/mL (≈ 35.7 µM); in assay [11], 6.25 µg/mL (≈ 17.8 µM); in assay [12], 12.5 µg/mL (≈ 35.7 µM). Besides, the MIC in assay [13] was 6.25 µg/mL (≈ 17.8 µM); in assay [14], 6.25 µg/mL (≈ 17.8 µM); in assay [15], 6.25 µg/mL (≈ 17.8 µM); in assay [16], 6.25 µg/mL (≈ 17.8 µM); in [17], 12.5 µg/mL (≈ 35.7 µM); in assay [18], 6.25 µg/mL (≈ 17.8 µM). The MIC turned out to be 12.5 µg/mL (≈ 35.7 µM) in [19] and 6.25 µg/mL (≈ 17.8 µM) in [20].
